Data: article PMC11310889, “Ribosomal translation of fluorinated non-canonical amino acids for de novo biologically active fluorinated macrocyclic peptides” (Chemical Science, 2024)

Legend:
[1] = test system: E. coli W3110; assay: Propidium iodide (PI) assay of membrane permeability; assay type: cell-based, Escherichia coli; conditions: E. coli W3110 logarithmic-phase, 15 min treatment with 5 μM peptide, PI 25 μg/mL 15 min (Fig. 5A)
Method: Propidium Iodide (PI) assay
Thaw the previously preserved E. coli W3110 cells from the -80 °C freezer. Scrape a small amount and inoculate it into 1 mL of LB liquid medium. Culture overnight in a 37°C shaker. Next day, inoculate the strain into fresh LB liquid medium at a 1:100 ratio and incubate at 37 °C until the OD600 reaches approximately 0.47 to 0.53. Take 100 μL of the E. coli W3110 cells and centrifuge for 2 min at 13,000 rpm. Discard the supernatant. For the untreated group, resuspend the cells in 100 μL of PBS. For the peptide treatment group, resuspend the cells in 99 μL of ddH2O and add 1 […]
μL of 0.5 mM of the different peptides. Mix thoroughly and let react for 15 min. After the treatment, take 80 μL of each sample and incubate with PI at a final concentration of 25 μg/mL for 15 min.
After incubation, wash the samples with the same amount of PBS, centrifuge, and resuspend at a 10-fold concentration. Observe the images using a Nikon Eclipse Ci-L Plus microscope. […]
Incubate overnight in a 37°C shaker. […]
Centrifuge again at
6100g for 10 min, discard the supernatant, and add 500 μL of ddH2O containing 2.5% glutaraldehyde. Resuspend and fix the cells overnight at 4°C. Centrifuge at 6100g for 10 min, remove the supernatant, and wash twice with ddH2O, letting it stand for 15 min each time, followed by centrifugation at 6100g for 10 min. Discard the supernatant. Dehydrate the sample with ethanol at concentration gradients of 30%, 60%, and 90%, without resuspension, centrifuging at 6100g for […]

[2] = test system: Gram-negative bacteria; conditions: cited from earlier work
Description: Furthermore, conjugating the R9 peptide to antimicrobial peptides enhances antibacterial activity, particularly increasing effectiveness against Gram-negative bacteria.[49–51] ...

[3] = test system: E. coli W3110; assay: Scanning electron microscopy of cell morphology; assay type: cell-based, Escherichia coli; conditions: E. coli W3110 logarithmic-phase, 4 h treatment at 2 μM and 5 μM (Fig. 5B, S11)
Method: Thaw the previously preserved E. coli W3110 cells from the -80 °C freezer. […]
Scanning electron microscopy
Thaw the previously preserved E. coli W3110 cells from the -80°C freezer. Scrape a small amount and inoculate it into 1 mL of LB liquid medium. Incubate overnight in a 37°C shaker. The next day, inoculate the strain into fresh LB liquid medium at a 1:100 ratio and incubate at 37°C until the OD600 reaches approximately 0.47 to 0.53. Take 500 μL of E. coli W3110 cells, centrifuge for 10 min at 4000 rpm, and discard the supernatant. Resuspend the cells in 500 μL of PBS, then centrifuge again at 4000 rpm for 10 min and discard the supernatant. Dissolve various macrocyclic peptides in DMSO and dilute to the required concentration. Resuspend the untreated group in 500 μL of PBS.
For the peptide treatment group, resuspend in 495 μL of ddH2O, add 5 μL of 0.2 mM or 0.5 mM peptides, mix well, and let react for 4 h.
After the treament, spot 4 μL of the sample on plates. Perform the first ten-fold dilution and mix, then continue with the second to fifth ten-fold dilutions. Incubate the plates inverted overnight in a 37°C incubator. Scan and count the colonies. For the remaining 492 μL, centrifuge at 6100g for 10 min, discard the supernatant, add 500 μL of ddH2O, and let it stand for 15 min. Centrifuge again at 6100g for 10 min, discard the supernatant, and add 500 μL of ddH2O containing 2.5% glutaraldehyde. Resuspend and fix the cells overnight at 4°C. Centrifuge at 6100g for 10 min, remove the supernatant, and wash twice with ddH2O, letting it stand for 15 min each time, followed by centrifugation at 6100g for 10 min. Discard the supernatant. Dehydrate the sample with ethanol at concentration gradients of 30%, 60%, and 90%, without resuspension, centrifuging at 6100g for […]
10 min and discarding the supernatant after each step. Finally, use 100% ethanol, rest for 15 min, centrifuge at 6100g for 10 min, discard the supernatant, and repeat with 100% ethanol, leaving about 10 μL. Then the critical point was dried and sprayed with gold, and the images were observed by […]
Prediction of binding sites between peptides and the BAM complex
Firstly, the fpocket algorithm was used, a rapid method for pocket prediction based on the three-dimensional structure of BAM complex (PDB ID: 5AYW). This method establishes a grid surrounding the protein, positioning alpha spheres on grid points devoid of spatial conflicts with protein atoms, subsequently utilizing a clustering algorithm to ascertain whether these regions constitute potential binding pockets. Alpha spheres were designated with radii ranging from 3.4Å to 6.2Å, with a prerequisite of at least 15 alpha spheres for a region to be considered a pocket. […]
PepNN evaluated each amino acid for its potentiality as a peptide binding site. […]

Substance: nona-arginine [R9, reference compound]
- PI red fluorescence (cell membrane permeability) [1]: weak red fluorescence
- anti-Gram-negative bacterial activity [2]: low anti-Gram-negative bacterial activity
- morphological changes by scanning electron microscopy [3]: slight shrinkage and partial rupture
